Laboratory results: patent US8134015B2, “Compound inhibiting in vivo phosphorous transport and medicine containing the same” (Kyowa Hakko Kirin Co., Ltd., priority 2003, dated 2012)

Columns and labels:
rat NaPi-2b = target: T1, rat NaPi-2b (Rattus norvegicus, UniProt Q9JJ09); experiment: Sodium-dependent phosphate uptake of Xenopus oocytes which expressed NaPi-2b (32P); format: cell-based; settings: Xenopus oocytes expressing rat NaPi-2b, 32P radioactive phosphorus; read-out: IC50 (phosphate uptake inhibitory activity)
T1 construct: expressed in transfected cells; host or cells: Xenopus oocytes injected with cRNA
T1 sequence (Q9JJ09 1-695): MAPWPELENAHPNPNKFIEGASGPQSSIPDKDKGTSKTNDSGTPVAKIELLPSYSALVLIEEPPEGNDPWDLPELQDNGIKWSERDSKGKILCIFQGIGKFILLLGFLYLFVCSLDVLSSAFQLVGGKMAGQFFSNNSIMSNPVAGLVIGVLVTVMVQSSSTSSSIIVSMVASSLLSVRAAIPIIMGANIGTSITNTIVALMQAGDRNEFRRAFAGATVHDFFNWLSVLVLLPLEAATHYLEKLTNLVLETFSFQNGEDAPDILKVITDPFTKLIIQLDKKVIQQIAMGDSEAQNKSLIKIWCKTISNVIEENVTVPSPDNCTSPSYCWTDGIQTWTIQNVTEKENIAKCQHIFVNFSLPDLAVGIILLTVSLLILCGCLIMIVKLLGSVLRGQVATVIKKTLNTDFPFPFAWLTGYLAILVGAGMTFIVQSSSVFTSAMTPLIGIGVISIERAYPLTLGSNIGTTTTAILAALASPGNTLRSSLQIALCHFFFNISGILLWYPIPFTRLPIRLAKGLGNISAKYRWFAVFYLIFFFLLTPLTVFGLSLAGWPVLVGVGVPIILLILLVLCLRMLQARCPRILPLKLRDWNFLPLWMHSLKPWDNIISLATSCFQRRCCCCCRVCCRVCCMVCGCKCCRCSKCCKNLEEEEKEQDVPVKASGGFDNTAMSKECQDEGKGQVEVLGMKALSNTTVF
Outline: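 Oocytes injected with rat NaPi-2b cRNA, cultured 2 d, then 32P uptake measured with compound. Values: % inhibition at 300 and 100 μM, both from one inhibition curve.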

human NaPi-2a = target: T2, human NaPi-2a (Homo sapiens, UniProt Q06495); experiment: Sodium-dependent phosphate uptake of Xenopus oocytes which expressed NaPi-2a (32P); format: cell-based; settings: Xenopus oocytes expressing human NaPi-2a; for IC50: phosphate uptake, five concentration levels
T2 construct: expressed in transfected cells
T2 sequence (Q06495 1-639): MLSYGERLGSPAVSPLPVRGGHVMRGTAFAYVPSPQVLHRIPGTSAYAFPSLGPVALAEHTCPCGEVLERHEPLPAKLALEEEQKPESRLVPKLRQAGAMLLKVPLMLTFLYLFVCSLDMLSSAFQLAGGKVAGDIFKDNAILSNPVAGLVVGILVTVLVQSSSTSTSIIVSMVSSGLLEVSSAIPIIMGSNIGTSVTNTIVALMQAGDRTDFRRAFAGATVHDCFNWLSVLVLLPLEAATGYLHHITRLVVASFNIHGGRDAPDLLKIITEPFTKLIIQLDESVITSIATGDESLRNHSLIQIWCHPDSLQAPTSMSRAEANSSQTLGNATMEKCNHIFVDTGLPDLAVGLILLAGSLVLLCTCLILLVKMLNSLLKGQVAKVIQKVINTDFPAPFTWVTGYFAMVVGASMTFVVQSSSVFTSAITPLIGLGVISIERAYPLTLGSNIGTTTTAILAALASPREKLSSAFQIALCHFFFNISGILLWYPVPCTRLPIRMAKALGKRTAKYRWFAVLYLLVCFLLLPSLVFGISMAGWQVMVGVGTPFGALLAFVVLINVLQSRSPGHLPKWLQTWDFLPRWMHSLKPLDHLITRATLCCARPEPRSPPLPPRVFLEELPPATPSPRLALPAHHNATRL
Text: Experiment of Sodium-Dependent Phosphate Uptake of Xenopus oocytes which Expressed NaPi-2a
In the test, a group with the addition of choline chloride (Choline Cl) was used as a negative control for nonspecific uptake, and PFA (phosphonoformic acid) was used as a positive control for phosphate transport inhibition.

Row | SMILES | IC50 (rat NaPi-2b) [µM] | IC50 (human NaPi-2a) [µM] | phosphate uptake inhibitory activity against NaPi-2a (human NaPi-2a; FIG. 3, FIG. 4)
1 | O=C(Nc1ccc(N2CCCCC2)cc1C(=O)N/N=C/c1ccc(F)cc1)c1cccc(CSCC(O)CO)c1 (stereo not shown) [Compound 901, 3-(2,3-Dihydroxy-propylsulfanylmethyl)-N-[2-(4-fluoro-benzylidene-hydrazinocarbonyl)-4-piperidin-1-yl-phenyl]-benzamide] | < 1 | < 1 | –
2 | O=C(Nc1ccc(N2CCCCC2)cc1C(=O)N/N=C/c1ccc(Cl)c(C(F)(F)F)c1)c1cccc(CNCCN(CCO)CCO)c1 [Compound 914, 3-({2-[Bis-(2-hydroxy-ethyl)-amino]-ethylamino}-methyl)-N-[2-(4-chloro-3-trifluoromethyl-benzylidene-hydrazinocarbonyl)-4-piperidin-1-yl-phenyl]-benzamide] | 1.75 | 3.13 | –
3 | Cc1ccc(/C=N/NC(=O)c2c(C)csc2NC(=O)c2cccc(CN3CCC4(CC3)OCCO4)c2)cc1 [Compound 833, 3-(1,4-Dioxa-8-aza-spiro[4,5]dec-8-ylmethyl]-N-[4-methyl-3-(4-methyl-benzylidene-hydrazinocarbonyl)-thiophen-2-yl]-benzamide] | 7.89 | 38.1 | –
4 | COc1ccc(C(=O)Nc2ccccc2C(=O)N/N=C/C=C/c2ccccc2)cc1OC [Compound 1, 3,4-Dimethoxy-N-[2-(3-phenyl-allylidene-hydrazinocarbonyl)-phenyl]-benzamide] | 9.11 | – | concentration-dependent inhibitory activity
5 | Cc1csc(NC(=O)c2cccc(CN(CCO)CCO)c2)c1C(=O)N/N=C/c1cccc(F)c1 [Compound 789, 3-{[Bis-(2-hydroxy-ethyl)-amino]-methyl}-N-[3-(3-fluoro-benzylidene-hydrazinocarbonyl)-4-methyl-thiophen-2-yl]-benzamide] | 1.16 | 9.28 | –
6 | O=C(Nc1sc2c(c1C(=O)N/N=C/c1cccc(F)c1)CCCC2)c1cccc(CN2CCC(CO)CC2)c1 [Compound 642, N-[3-(3-Fluoro-benzylidene-hydrazinocarbonyl)-4,5,6,7-tetrahydro-benzo[b]thiophen-2-yl]-3-(4-hydroxymethyl-piperidin-1-ylmethyl)-benzamide] | 2.14 | 13.3 | –
7 | CC(O)CN(Cc1cccc(C(=O)Nc2sc3ccccc3c2C(=O)N/N=C/c2cccc(F)c2)c1)CC(C)O (stereo not shown) [Compound 795, 3-{[Bis-(2-hydroxy-propyl)-amino]-methyl}-N-[3-(3-fluoro-benzylidene-hydrazinocarbonyl)-benzo[b]thiophen-2-yl]-benzamide] | 1.92 | 8.52 | –
8 | O=C(Nc1ccc(N2CCCCC2)cc1C(=O)N/N=C/c1ccc(F)cc1)c1cccc(CN2CCc3nc4ncccc4cc3C2)c1 [Compound 895, 3-(7,8-Dihydro-5H-1,6,9-triaza-anthracen-6-ylmethyl)-N-[2-(4-fluoro-benzylidene-hydrazinocarbonyl)-4-piperidin-1-yl-phenyl]-benzamide] | < 0.3 | 5.52 | –
9 | Cc1csc(NC(=O)c2cccc(CN3CCN(c4ncccn4)CC3)c2)c1C(=O)N/N=C/c1cccc(F)c1 [Compound 829, N-[3-(3-Fluoro-benzylidene-hydrazinocarbonyl)-4-methyl-thiophen-2-yl]-3-(4-pyrimidin-2-yl-piperazin-1-ylmethyl)-benzamide] | 3.91 | < 3 | –
10 | Cc1ccc(/C=N/NC(=O)c2cc(N3CCCCC3)ccc2NC(=O)c2cccc(CSCC(O)CO)c2)cc1C (stereo not shown) [Compound 899, 3-(2,3-Dihydroxy-propylsulfanylmethyl)-N-[2-(3,4-dimethyl-benzylidene-hydrazinocarbonyl)-4-piperidin-1-yl-phenyl]-benzamide] | < 1 | < 1 | –
11 | O=C(Nc1ccc(N2CCCCC2)cc1C(=O)N/N=C/c1cccc(F)c1)c1cccc(CN2CCc3nc4ncccc4cc3C2)c1 [Compound 896, 3-(7,8-Dihydro-5H-1,6,9-triaza-anthracen-6-ylmethyl)-N-[2-(3-fluoro-benzylidene-hydrazinocarbonyl)-4-piperidin-1-yl-phenyl]-benzamide] | < 0.3 | 7.4 | –
12 | COc1ccc(/C=N/NC(=O)c2c(NC(=O)c3cccc(CN4CCC(O)CC4)c3)sc3c2CCCC3)cc1 [Compound 638, 3-(4-Hydroxy-piperidin-1-ylmethyl)-N-[3-(4-methoxy-benzylidene-hydrazinocarbonyl)-4,5,6,7-tetrahydro-benzo[b]thiophen-2-yl]-benzamide] | 3.15 | 4.22 | –
13 | O=C(Nc1sc2ccccc2c1C(=O)N/N=C/c1ccc(F)cc1)c1cccc(CN2CCC(CO)CC2)c1 [Compound 800, N-[3-(4-Fluoro-benzylidene-hydrazinocarbonyl)-benzo[b]thiophen-2-yl]-3-(4-hydroxymethyl-piperidin-1-ylmethyl)-benzamide] | 9.24 | 10 | –
14 | O=C(O)CCSCc1cccc(C(=O)Nc2ccc(N3CCCCC3)cc2C(=O)N/N=C/c2ccc(Cl)c(C(F)(F)F)c2)c1 [Compound 889, 3-{3-[2-(4-Chloro-3-trifluoromethyl-benzylidene-hydrazinocarbonyl)-4-piperidin-1-yl-phenylcarbamoyl]-benzylsulfanyl}-propionic acid] | 0.33 | 1.41 | –
15 | Cc1ccc(/C=N/NC(=O)c2c(C)csc2NC(=O)c2cccc(CN(C)C)c2)cc1C [Compound 822, 3-Dimethylaminomethyl-N-[3-(3,4-dimethyl-benzylidene-hydrazinocarbonyl)-4-methyl-thiophen-2-yl]-benzamide] | 5.9 | 18 | –
16 | Cc1sc(NC(=O)c2cccc(CN(CC(C)O)CC(C)O)c2)c(C(=O)N/N=C/c2ccc(F)cc2)c1C (stereo not shown) [Compound 846, 3-{[Bis-(2-hydroxy-propyl)-amino]-methyl}-N-[3-(4-fluoro-benzylidene-hydrazinocarbonyl)-4,5-dimethyl-thiophen-2-yl]-benzamide] | < 3 | < 3 | –
17 | Cc1ccc(/C=N/NC(=O)c2c(NC(=O)c3cccc(CN4CCC(O)CC4)c3)sc3c2CCCC3)cc1C [Compound 633, N-[3-(3,4-Dimethyl-benzylidene-hydrazinocarbonyl)-4,5,6,7-tetrahydro-benzo[b]thiophen-2-yl]-3-(4-hydroxy-piperidin-1-ylmethyl)-benzamide] | 1.19 | 13.5 | –
18 | CCN(CC)CCNCc1cccc(C(=O)Nc2sc3c(c2C(=O)N/N=C/c2ccc(C)cc2)CCC3)c1 [Compound 811, 3-[(2-Diethylamino-ethylamino)-methyl]-N-[3-(4-methyl-benzylidene-hydrazinocarbonyl)-5,6-dihydro-4H-cyclopenta[b]thiophen-2-yl]-benzamide] | 9.11 | 37.2 | –
19 | COc1ccc(/C=N/NC(=O)c2c(NC(=O)c3cccc(CN(CC(C)O)CC(C)O)c3)sc3c2CCCC3)cc1 (stereo not shown) [Compound 632, 3-{[Bis-(2-hydroxy-propyl)-amino]-methyl}-N-[3-(4-methoxy-benzylidene-hydrazinocarbonyl)-4,5,6,7-tetrahydro-benzo-[b]thiophen-2-yl]-benzamide] | < 1 | 28.7 | –
20 | O=C(O)CSCc1cccc(C(=O)Nc2ccc(N3CCCCC3)cc2C(=O)N/N=C/c2ccc(Cl)c(C(F)(F)F)c2)c1 [Compound 891, {3-[2-(4-Chloro-3-trifluoromethyl-benzylidene-hydrazinocarbonyl)-4-piperidin-1-yl-phenylcarbamoyl]-benzylsulfanyl}-acetic acid] | 1.47 | 13.9 | –
